From patent publication US12448410B2, “Derivative of sarsasapogenin, pharmaceutical composition and use thereof” (Phytovent Biopharma, priority 2018, dated 2025)

Columns and labels:
Type in all cases: cell-based
[1] = system: A549 lung cancer cells; assay: CTG cell proliferation, in vitro growth inhibition of A549 lung cancer cells; conditions: Homo sapiens, 72 hours, CellTiter-Glo
Protocol: (§1) Study of CTG Cell Proliferation—Inhibition of In-Vitro Growth of Various Tumor Cells by Sarsasapogenin Derivative
(§2) Tumor cells included: human A549 cells (lung cancer cells) (ATCC, Catalog No. CCL-185), HeLa cells (cervical cancer cells) (ATCC, Catalog No. CCL-2), HepG2 cells (liver cancer cells) (ATCC, Catalog No. HB-8065), A375 cells (melanoma cells) (ATCC, Catalog No. CRL-1619), MCF-7 (breast cancer cell) (ATCC, Catalog No. HTB-22), U87MG (brain glioma cell) (ATCC, Catalog No. HTB-14), LN229 (ATCC, Catalog No. CRL-2611), A172 (ATCC, Catalog No. CRL-1620), KNS-42 (JCRB, Catalog No. IF050356), BE(2)-C (ATCC, Catalog No. CRL-2268), U118MG (ATCC, Catalog No. HTB-15), SW-1088 (ATCC, Catalog No. HTB-12), and SH-SY5Y (CLS, Catalog No. 300154).
(§3) The aforementioned tumor cells were inoculated into clear-bottom white 96-well culture plates (Corning, Catalog No. CLS3903) containing specific medium at 1.8 to 15×10^3 cells per well, and were incubated in an incubator (37° C., 5% CO2) for 24 hours.
(§4) A 10 mM stock solution was prepared by using DMSO (Sigma, Catalog No. D2650) for each compound, diluted with medium to required concentrations (final concentration of DMSO: 0.2%) and added into each well with 2 replicate wells/concentration. The cells were incubated in the incubator at 37° C. and 5% CO2 for 72 hours. Then, 100 μL of CellTiter-Glo® cell activity assay reagent (Promega, Catalog No. G7573) was added into each well and well mixed using a shaker for 10 minutes to induce cytolysis. The 96-well plates were let stand at room temperature for 10 minutes to stabilize the luminous signals. With white bottom membranes attached to the bottoms of the culture plates, the plates were read using EnSpire system. Data were processed by XLfit software to give IC50 values.

[2] = system: U87MG (brain glioma cell); assay: CTG cell proliferation, brain tumor cells U87MG; conditions: Homo sapiens, U-87 MG, 72 hours, CellTiter-Glo, read-out: Inhibition of in vitro growth of brain tumor cells (IC50)
Protocol: as §1, §2, §3, §4

[3] = system: SH-SY5Y; assay: CTG cell proliferation, brain tumor cells SH-SY5Y; conditions: Homo sapiens, 72 hours, CellTiter-Glo, read-out: Inhibition of in vitro growth of brain tumor cells (IC50)
Protocol: as §1, §2, §3, §4

[4] = system: SW-1088; assay: CTG cell proliferation, brain tumor cells SW-1088; conditions: Homo sapiens, SW1088; SW-1088, 72 hours, CellTiter-Glo; read-out: Inhibition of in vitro growth of brain tumor cells (IC50)
Protocol: as §1, §2, §3, §4

[5] = system: U118MG; assay: CTG cell proliferation, brain tumor cells U118MG; conditions: Homo sapiens, U-118-MG, 72 hours, CellTiter-Glo, read-out: Inhibition of in vitro growth of brain tumor cells (IC50)
Protocol: as §1, §2, §3, §4

[6] = system: LN229; assay: CTG cell proliferation, brain tumor cells LN229; conditions: Homo sapiens, LN-229; LN229, 72 hours, CellTiter-Glo; read-out: Inhibition of in vitro growth of brain tumor cells (IC50)
Protocol: as §1, §2, §3, §4

[7] = system: A172; assay: CTG cell proliferation, brain tumor cells A172; conditions: Homo sapiens, A 172; A172, 72 hours, CellTiter-Glo; read-out: Inhibition of in vitro growth of brain tumor cells (IC50)
Protocol: as §1, §2, §3, §4

[8] = system: BE(2)-C; assay: CTG cell proliferation, brain tumor cells BE(2)-C; conditions: Homo sapiens, 72 hours, CellTiter-Glo, read-out: Inhibition of in vitro growth of brain tumor cells (IC50)
Protocol: as §1, §2, §3, §4

[9] = system: KNS-42; assay: CTG cell proliferation, brain tumor cells KNS-42; conditions: Homo sapiens; KNS-42, 72 hours, CellTiter-Glo; read-out: Inhibition of in vitro growth of brain tumor cells (IC50)
Protocol: as §1, §2, §3, §4

C[C@H]1CC[C@@]2(OC1)O[C@H]1C[C@H]3[C@@H]4CC[C@@H]5CC(NC(=O)C6CCN(C)CC6)CC[C@]5(C)[C@H]4CC[C@]3(C)[C@H]1[C@@H]2C (stereo partly drawn) [Example 1]
inhibition at 1 µM [1]: -5.25%
inhibition at 5 µM [1]: 31.1%
inhibition at 10 µM [1]: 87.6%

C[C@H]1CC[C@@]2(OC1)O[C@H]1C[C@H]3[C@@H]4CC[C@@H]5C[C@@H](NC(=O)CCN6CCN(C)CC6)CC[C@]5(C)[C@H]4CC[C@]3(C)[C@H]1[C@@H]2C [Example 2A]
IC50 [2]: 1560 nM
IC50 [3]: 2780 nM
IC50 [4]: 660 nM
IC50 [5]: 1070 nM
IC50 [6]: 1620 nM
IC50 [7]: 1660 nM
IC50 [8]: 2850 nM
IC50 [9]: 1770 nM

C[C@H]1CC[C@@]2(OC1)O[C@H]1C[C@H]3[C@@H]4CC[C@@H]5C[C@H](NC(=O)CCN6CCN(C)CC6)CC[C@]5(C)[C@H]4CC[C@]3(C)[C@H]1[C@@H]2C [Example 2B]
IC50 [2]: 4660 nM
IC50 [3]: > 10000 nM
IC50 [4]: 2750 nM
IC50 [5]: 5170 nM
IC50 [6]: 5520 nM
IC50 [7]: 3840 nM
IC50 [8]: 7900 nM
IC50 [9]: 4780 nM

C[C@H]1CC[C@@]2(OC1)O[C@H]1C[C@H]3[C@@H]4CC[C@@H]5CC(NC(=O)CCN6CCN(C)CC6)CC[C@]5(C)[C@H]4CC[C@]3(C)[C@H]1[C@@H]2C (stereo partly drawn) [Example 2]
inhibition at 1 µM [1]: 95.3%
inhibition at 5 µM [1]: 98.1%
inhibition at 10 µM [1]: 100%

C[C@H]1CC[C@@]2(OC1)O[C@H]1C[C@H]3[C@@H]4CC[C@@H]5CC(NC(=O)CN(C)C)CC[C@]5(C)[C@H]4CC[C@]3(C)[C@H]1[C@@H]2C (stereo partly drawn) [Example 3]
inhibition at 1 µM [1]: 1%
inhibition at 5 µM [1]: 86.2%
inhibition at 10 µM [1]: 99%

C[C@H]1CC[C@@]2(OC1)O[C@H]1C[C@H]3[C@@H]4CC[C@@H]5CC(NC(=O)CCN(C)C)CC[C@]5(C)[C@H]4CC[C@]3(C)[C@H]1[C@@H]2C (stereo partly drawn) [Example 4]
IC50 [2]: 2360 nM
IC50 [3]: 2800 nM
IC50 [4]: 2720 nM
IC50 [5]: 1930 nM
inhibition at 1 µM [1]: 18.2%
inhibition at 5 µM [1]: 99%
inhibition at 10 µM [1]: 100%
IC50 [6]: 2290 nM
IC50 [7]: 3040 nM
IC50 [8]: 3310 nM
IC50 [9]: 1920 nM

C[C@H]1CC[C@@]2(OC1)O[C@H]1C[C@H]3[C@@H]4CC[C@@H]5CC(NC(=O)CC(=O)N6CCN(C)CC6)CC[C@]5(C)[C@H]4CC[C@]3(C)[C@H]1[C@@H]2C (stereo partly drawn) [Example 5]
inhibition at 1 µM [1]: 1.37%
inhibition at 5 µM [1]: 48.3%
inhibition at 10 µM [1]: 95.9%

C[C@H]1CC[C@@]2(OC1)O[C@H]1C[C@H]3[C@@H]4CC[C@@H]5CC(NC(=O)CC(=O)NC6CCN(C)CC6)CC[C@]5(C)[C@H]4CC[C@]3(C)[C@H]1[C@@H]2C (stereo partly drawn) [Example 6]
inhibition at 1 µM [1]: -6.51%
inhibition at 5 µM [1]: 82.2%
inhibition at 10 µM [1]: 99.8%

C[C@H]1CC[C@@]2(OC1)O[C@H]1C[C@H]3[C@@H]4CC[C@@H]5CC(NC(=O)CC(=O)NCC6CCN(C)CC6)CC[C@]5(C)[C@H]4CC[C@]3(C)[C@H]1[C@@H]2C (stereo partly drawn) [Example 7]
inhibition at 1 µM [1]: -0.84%
inhibition at 5 µM [1]: 91.7%
inhibition at 10 µM [1]: 99.9%

C[C@H]1CC[C@@]2(OC1)O[C@H]1C[C@H]3[C@@H]4CC[C@@H]5CC(NC(=O)CC(=O)NCCCN6CCOCC6)CC[C@]5(C)[C@H]4CC[C@]3(C)[C@H]1[C@@H]2C (stereo partly drawn) [Example 8]
inhibition at 1 µM [1]: 36.2%
inhibition at 5 µM [1]: 7.71%
inhibition at 10 µM [1]: 93.5%

C[C@H]1CC[C@@]2(OC1)O[C@H]1C[C@H]3[C@@H]4CC[C@@H]5CC(NC(=O)CC(=O)N6CCC(N7CCCCC7)CC6)CC[C@]5(C)[C@H]4CC[C@]3(C)[C@H]1[C@@H]2C (stereo partly drawn) [Example 9]
inhibition at 1 µM [1]: 2.09%
inhibition at 5 µM [1]: 22.9%
inhibition at 10 µM [1]: 97.8%

C[C@H]1CC[C@@]2(OC1)O[C@H]1C[C@H]3[C@@H]4CC[C@@H]5CC(NC(=O)CC(=O)N6CCNCC6)CC[C@]5(C)[C@H]4CC[C@]3(C)[C@H]1[C@@H]2C (stereo partly drawn) [Example 10]
inhibition at 1 µM [1]: 5.08%
inhibition at 5 µM [1]: 65.8%
inhibition at 10 µM [1]: 99.3%

C[C@H]1CC[C@@]2(OC1)O[C@H]1C[C@H]3[C@@H]4CC[C@@H]5CC(NC(=O)CC(=O)N6CC7CNCC7C6)CC[C@]5(C)[C@H]4CC[C@]3(C)[C@H]1[C@@H]2C (stereo partly drawn) [Example 11]
inhibition at 1 µM [1]: 3.86%
inhibition at 5 µM [1]: 57.3%
inhibition at 10 µM [1]: 97.2%

C[C@H]1CC[C@@]2(OC1)O[C@H]1C[C@H]3[C@@H]4CC[C@@H]5CC(NC(=O)CC(=O)N6CCN(CCN7CCCC7)CC6)CC[C@]5(C)[C@H]4CC[C@]3(C)[C@H]1[C@@H]2C (stereo partly drawn) [Example 12]
inhibition at 1 µM [1]: 4.5%
inhibition at 5 µM [1]: 89.6%
inhibition at 10 µM [1]: 98.5%
